In the NIST ThermoML archive (doi:10.1016/j.fluid.2012.11.029):
± gives the expanded uncertainty stated by the source.

Experiments:
[1] = Crystal; DTA
[2] = Molar enthalpy of transition or fusion; settings: Crystal; DSC

Row | Normal melting temperature [1] [°C] | Molar enthalpy of transition or fusion [2] [kJ/mol] | Compound
1 | 172.69 ± 1.1 | 27.9 ± 0.8 | NNC(=O)c1ccncc1 [isonicotinic acid hydrazide]
2 | 188.27 ± 1.1 | 28.1 ± 0.8 | NC(=O)c1cnccn1 [pyrazinecarboxamide]

Row | Compound | Normal melting temperature [1] [°C] | Molar enthalpy of transition or fusion [2] [kJ/mol]
3 | CCCCCCCCCC[N+](C)(C)CCCCCCCCCC.O=[N+]([O-])[O-] [Didecyldimethylammonium nitrate] | 31.7 ± 1.1 | 9.76 ± 0.33
